System: acute panic attacks in patients with panic disorder
Experiment: Double-blind, randomized, placebo-controlled clinical trial of alprazolam delivered by inhalation; panic recorded with patient experience diary (PED)
Format: in vivo
Settings: for mean peak panic severity / mean panic severity at 12 minutes: 11-point visual analogue scale; for mean panic severity at 12 minutes: 12 minutes following use of the inhaler
Procedure: To determine the efficacy of alprazolam delivered by inhalation in the treatment of acute panic attacks, a clinical trial is conducted. The objectives of the trial are to determine the effectiveness of alprazolam delivered by inhalation at the time of onset of panic symptoms in decreasing the duration and/or severity of acute panic attacks in patients with panic disorder. The duration and severity of acute panic symptoms are measured using a patient experience diary (PED) for the real time assessment of severity of panic attacks. Patients are recruited for the study by posting in various public locations and medical clinics advertisements seeking patients who experience 2 or more panic attacks per week for participation in the study. To enroll patients who have not previously been treated for panic, the advertisement may include a description of panic symptoms, so that patients who experience panic attacks without being aware that such attacks constitute a medical condition are encouraged to volunteer.
The overall study design is a double-blind, randomized, placebo-controlled clinical trial. Patients 18-65 years of age reporting at least 2 panic attacks per week, without history of psychotic disorders, substance abuse disorders, dementia, or severe or life-threatening medical disorders such as serious heart or lung disease, eligible for the study. Patients not currently on medication for panic disorder, as well as patients currently using a stable dose of selective serotonin reuptake inhibitor (SSRI) the treatment of panic disorder are eligible for the study, as are patients currently taking alprazolam or other benzodiazepines on a PRN basis, if the patients agree not to use such drugs during the study period. Patients using chronic benzodiazepines or other sedative hypnotics for the treatment of panic disorder are excluded from the study, as are patients using psychotropic medications other than SSRIs or unstable SSRI doses. Eligible patients are enrolled in the study after being explained the risks and benefits of the study and signing informed consent.
The patients are then trained in use of the PED described in Examples 1 and 2 above, set to an every 3 minute prompting interval. After being trained in use of the PED, the patients then take the PED home for 3 weeks of use. During these 3 weeks, patients must record at least one panic attack per week in the diary of duration greater than 12 minutes (time from initial diary entry until the patient answers “not at all” to the item regarding the severity of their panic symptoms right now) to proceed to the randomization point in the study. Patients recording less than one panic attack per week, only very brief (less than 12 minute duration panic attacks), or having difficulty using the diary are dropped from the study. At this point, continuing patients are randomized to receive placebo inhaler, inhaler dispensing alprazolam 0.25 mg as an aerosol having an approximately 2 μm mass median aerodynamic diameter (MMAD), or inhaler dispensing alprazolam 0.5 mg as an aerosol having an approximately 2 μm MMAD. Patients are given four identical inhalers each, and instructed to use the inhalers at the time of their next 4 panic attacks (only 1 inhaler per attack). In particular, the patients are instructed to start the PED at the initiation of panic symptoms before taking their medication, to take the medication when prompted by the PED, and then to record the course of the panic attack after taking the medication as prompted by the PED.
Data from the 4 panic attacks during which the inhaler is used as panic treatment are recorded in the PED and transmitted to a central data storage site. The data is analyzed after each patient records 4 panic attacks, or after 8 weeks passes from the time the patient received the inhalers. […]

## Cc1nnc2n1-c1ccc(Cl)cc1C(c1ccccc1)=NC2 [alprazolam, 8-chloro-1-methyl-6-phenyl-4H-[1,2,4]triazolo[4,3-α] [1,4]benzodiazepine]
Alprazolam 0.25 mg by inhaler
  mean peak panic severity: 6
  mean panic severity at 12 minutes: 3 out of 10
Alprazolam 0.5 mg by inhaler
  mean peak panic severity: 6
  mean panic severity at 12 minutes: 1.5 out of 10
Patients receiving alprazolam 0.25 mg by inhaler (aerosol, approx. 2 μm MMAD) at onset of panic attack
  mean duration of panic: 20 min
Patients receiving alprazolam 0.5 mg by inhaler (aerosol, approx. 2 μm MMAD) at onset of panic attack
  mean duration of panic: 10 min

Source: US20050131739A1, “Methods for monitoring severity of panic attacks and other rapidly evolving medical events in real time” (Alexza Molecular Delivery Corporation, priority 2003, published 2005)
